These results are taken from patent US11690813B2, “Aminothiol reduction of ischemia-reperfusion-induced cell death” (OBVIA PHARMACEUTICALS LTD, priority 2018, dated 2023).

The subject of data set [1] is Caspase 3 and 7 activity in kidney homogenate supernates. The note with it: mouse, in vivo, ip.
For a further data set, the system named is irradiated skin. It counts as in vivo, rat.
For data set [2] the following is noted: mouse, in vivo.
For data set [3] the following is noted: rat, in vivo.
For data set [4] the following is noted: in vivo.
The conditions of data set [5]: humans; cited from earlier work.
Data set [6] has as its system serum blood urea nitrogen (BUN). The note with it: mouse, in vivo, ip.
Another data set concerns human blood lymphocytes. It counts as cell-based.
A further data set can be described thus: physchem. The note with it: buffer, pH 7.2.
Another data set concerns cardiac muscle. Conditions: mouse, in vivo, ip.
Data set [7] concerns pUC19 plasmid DNA. Briefly: x-irradiation ROS-induced nicking of pUC19 plasmid DNA. It counts as biochemical.
Details of data set [8]: species or system mice. Conditions: mouse, in vivo.
The conditions of data set [9]: mouse, in vivo. This is another data set of the same source.
Data set [10] concerns primary neonate cardiac myocytes. The data set is classed as cell-based, mice.
Data set [11] relates to pUC19 plasmid DNA. It counts as biochemical.
The conditions of data set [12]: rats; cited from earlier work.
Where [13] appears, read: added 15 min before 90 Gy x-irradiation over 30 min.

SMILES strings stand for the structures. “And” between values parts separate entries of the source, which are not always exact repeats. Equal values may be shown once. Read-outs that look alike come from different tables or passages of the source.

On to `NCC(CN)CS` [PrC-211], for which the “reduction in level of kidney caspase at 0.24 MTD” value in data set [1] is listed as “highly significant reductions”. The “Ionizing Radiation-ROS-Induced Dermatitis (% Clear Skin)” value with irradiated skin (rat, in vivo) was 55 % Clear Skin and 100 % Clear Skin; in the data set with irradiated skin (rat, in vivo, ip), 87 % Clear Skin. In addition, the “IP maximum tolerated dose (MTD)” value in [2] is reported as 500 ug/gm body weight.
On to `NCCCNCCSP(=O)(O)O` [Amifostine, amifostine], for which the “blood pressure response to challenge dose of IP epinephrine after drug” value in [3] is “no discernible effect upon blood pressure”. Further, in data set [3] (ip), the “effect on blood pressure” value is “immediate and irreversible drop in blood pressure”; the “ocular toxicity associated with chronic hypotension” value is on record as “discernible ocular phenotype/toxicity”. For the same compound, the “Ionizing Radiation-ROS-Induced Dermatitis (% Clear Skin)” value with irradiated skin (Topical 100 mM, day 13) worked out at 0 % Clear Skin. Moreover, in data set [4], the “retching and emesis responses” value is “significant bouts of both retching and emesis”. Moreover, in data set [5], the hypotension/fainting side effects entry is recorded as “hypotension/fainting side effects” and the nausea/emesis side effects result is listed as “severe nausea/emesis side effects”.
A word on the half-life: it is the time in which the quantity being followed falls by half. Lower therefore signals rapid decline. Consider `CNCC(CS)CNC` [PrC-210], for which, in [6], the “reduction in serum blood urea nitrogen (BUN) level” value is reported as “like reduction”. In addition, in data set [1], the “reduction in level of kidney caspase” value turned out to be 84%, the “reduction in level of kidney caspase at 0.24 MTD” value is “highly significant reductions” and the “reduction in level of kidney caspase over dose range” value is “dose-dependent reduction”. Moreover, in data set [3], the “blood pressure response to challenge dose of IP epinephrine after drug” value was “robust increase in blood pressure”. For the same compound, in data set [3] (ip), the “effect on blood pressure” value is “no reduction in blood pressure”. Moreover, the “suppression of γ-H2AX foci formation” value with human blood lymphocytes was “highly significant”. The “Ionizing Radiation-ROS-Induced Dermatitis (% Clear Skin)” value in the data set on irradiated skin (rat, in vivo) came to 100 % Clear Skin. The “Ionizing Radiation-ROS-Induced Dermatitis (% Clear Skin)” value with irradiated skin (rat, in vivo, ip) is listed as 100 % Clear Skin. For the same compound, the half-life in the data set “physchem” was 3.5 h. The “IP maximum tolerated dose (MTD)” value in data set [2] came to 504 ug/gm body weight. The “reduction in percentage of total cardiac muscle stained as dead-tissue” value with cardiac muscle is listed as 36%. Moreover, in the data set with pUC19 plasmid DNA [7], the “suppression of ROS-induced damage to plasmid DNA” value (from here on “suppression of ROS-induced damage”) is “dose-dependent suppression” and the “suppression of pUC19 DNA damage” value amounted to 90%. For the same compound, in data set [8], the “suppression of radiation-induced death” value is on record as “complete suppression” and the “survival against otherwise 100% lethal dose of radiation” value was determined as 100%. Besides, in [9], the “PrC-210 thiol blood concentration” value was 3 mM and the “plasma/blood concentrations of PrC-210 thiol associated with protection” value was 1 to 3 mM. For the same compound, the “retching and emesis responses” value in data set [4] (ferret) is recorded as “none of the 10 ferrets”. Moreover, the “H2O2-induced cell death eliminated” value in data set [10] is about 80%. Also, the “half-life of the thiol” value (buffer, pH 7.2) worked out at 3.5 h. In addition, the “conversion to disulfide form” value (pH 6) is listed as “no discernible conversion”. In addition, in the data set with pUC19 plasmid DNA [11], the “suppression of .OH-induced ROS DNA damage” value is “complete suppression”.
As for `NCCCNCCS` [WR-1065, reference compound], in data set [12], the hypotension side effects entry is “hypotension side effects”. Besides, in the data set with pUC19 plasmid DNA [7] (setting [13]), the “suppression of ROS-induced damage” value is “dose-dependent suppression”.
`NCCS` [cysteamine, reference compound]: the “suppression of ROS-induced damage” value in the data set on pUC19 plasmid DNA [7] (setting [13]) is on record as “dose-dependent suppression”.
Turning to `CN(C)C(=O)C(CCN1CCC(O)(c2ccc(Cl)cc2)CC1)(c1ccccc1)c1ccccc1` [loperamide], the “retching and emesis responses” value in data set [4] was “strong retch and emesis responses”.
